In patent US20160250127A1, “USE OF A POLYOL IN THE REMINERALISATION OF ENAMEL” (ROQUETTE FRERES, priority 2013, published 2016):

Test system: early carious lesions (enamel lesions of anterior maxillary teeth)
Experiment: QLF analysis of enamel lesion remineralization, 6-month clinical study of sugar-free chewing gums
Type: in vivo, human
Conditions: for stopping and reversing the oral white lesions, compared with the two control groups: 6-month study; for ΔF compared with gumbase group and control group without gum: after 3 months, P<0.01; for ΔF compared with the two control groups (gumbase and no gum) / ΔQ compared with the two control groups (gumbase and no gum): after 6 months, p<0.01
Text: The QLF™ (Quantitative Light-induced Fluorescence) method is a dental diagnostic tool for the quantitative evaluation, in vivo and in vitro, of dental carious lesions. The apparatus is equipped with a camera and is connected to a computer (using a program specific to QLF™). The probe, which emits a blue light (xenon lamp+filter), is passed over the tooth tested, which retransmits this light in the form of fluorescence. […] This photograph or instantaneous image is then processed using the software of the QLF™ which then recreates a reconstituted image representing the carious lesion. With this method, the real-time fluorescent images are entered into the computer and stored in an image database. Quantitative analysis of the images allows the user to quantify parameters such as loss of minerals, lesion depth, lesion size, size of the spots present on the teeth and seriousness of the various lesions with great precision and repeatability. The QLF™ method is based on the autofluorescence of the teeth. When the teeth are illuminated by the high-intensity blue light, they will begin to emit light in the green part of the spectrum. The intensity of the fluorescence of the dental material is directly related to the mineral content of the enamel. Since the QLF™ method uses fluorescence to reveal the dental carie, the contrast between the demineralized enamel and the healthy enamel is increased. Thus, the absence of specular reflection in the images obtained by the QLF™ method facilitates the calculation of the size and seriousness of the lesion by the digital image processing system. Evaluation of the efficacy against caries of a sugar-free chewing gum containing maltitol sold by the applicant under the brand SweetPearl™ using a study model consisting of various appropriate control groups (gum and maltitol, gum and xylitol, gum without polyol and no chewing gum) and the QLF™ method. Children from 8 to 13 years old, in good health, were included in the study. Their parents were informed about the study by the teachers of the school and signed an informed consent form. […] In total, 420 pupils completed a six-month study. This study is a double-blind (subjects, caregivers and examiners), multicenter, parallel, random clinical study carried out in schools. The evaluation of the dental plaque uses the Silness method and the Loe index. The digital images were taken using a digital photographic apparatus, and those of the QLF™ method were taken using the QLF™ apparatus separately. Before this examination, all the dental plaque was removed from the surface of the teeth. All the procedures were supervised by qualified personnel (dentists/hygienists). The QLF™ method was used to monitor the evolution of demineralization and remineralization of the enamel lesions. During the visit, fluorescent images were taken of the six (or fewer) anterior maxillary teeth. An image of each tooth was taken at each visit in order to ensure that all the anterior teeth were photographed. All the images taken using the QLF™ apparatus were analyzed by an experienced individual in order to determine the “mineral condition” of each tooth, using proprietory software (QLF 2.00, Inspektor, The Netherlands). The QLF™ method makes it possible to control three distinct parameters: ΔF, the area of the lesion and ΔQ. ΔF is the percentage loss of fluorescence between the comparison of a healthy enamel and an identified lesion. The detection threshold for ΔF is 5%, which means that a loss of fluorescence below this threshold is considered to be background noise and therefore not significant. The area of the lesion is calculated by means of the pixels taken into account by the analysis software as representing the demineralized enamel (i.e. those with a loss of fluorescence of at least 5%). ΔQ is the product of ΔF multiplied by the area of the lesion and represents the volume of this lesion. […]

[1] = 3 Months, 2 chewing gums (up to 60% polyol) 5 times per day
[2] = 6 Months, 2 chewing gums (up to 60% polyol) 5 times per day
[3] = Baseline, children 8-13 years, mean ± spread

SMILES | QLF parameter Area (area of the lesion) [1] | QLF parameter ΔF (percentage loss of fluorescence) [1] | QLF parameter ΔQ (ΔF multiplied by area of the lesion) [1] | stopping and reversing the oral white lesions, compared with the two control groups | QLF parameter Area (area of the lesion) [2] | QLF parameter ΔF (percentage loss of fluorescence) [2] | QLF parameter ΔQ (ΔF multiplied by area of the lesion) [2] | QLF parameter ΔF (percentage loss of fluorescence) (Baseline, children 8-13 years) | QLF parameter ΔQ (ΔF multiplied by area of the lesion) (Baseline, children 8-13 years) | QLF parameter Area (area of the lesion) [3] | ΔF compared with gumbase group and control group without gum | ΔF compared with the two control groups (gumbase and no gum) | ΔQ compared with the two control groups (gumbase and no gum)
OC[C@@H](O)[C@H](O)[C@@H](O)CO [Xylitol, xylitol] | 2.43 ± 1.72 | −8.56 ± 2.02 | −22.10 ± 18.85 | significantly more effective | 2.31 ± 1.85 | −8.37 ± 1.78 | −18.19 ± 21.29 | −9.36 ± 1.92 | −25.95 ± 24.66 | 2.58 ± 1.91 | significantly different | considerable differences | considerable differences
OC[C@@H](O)[C@@H](O[C@H]1O[C@H](CO)[C@@H](O)[C@H](O)[C@H]1O)[C@H](O)[C@@H](O)CO [Maltitol, maltitol] | 2.33 ± 1.90 | −8.78 ± 1.78 | −20.62 ± 18.97 | significantly more effective | 2.18 ± 1.63 | −8.42 ± 1.87 | −16.69 ± 15.15 | −9.38 ± 1.79 | −24.87 ± 23.06 | 2.47 ± 1.95 | significantly different | considerable differences | considerable differences
